Structures are written as SMILES.

Consider 7 compounds from the supplement of paper PMC11061612.

The test system of assay [1] is SK-N-AS (Neuroblastoma). Put plainly: combination Emax (second highest fraction inhibited in the dose matrix, 72 h); higher = more inhibition; extreme values may be limits of the assay. The essentials:
(§1)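 Bliss excess equals the observed combination effect minus the expected value EA + EB − EA·EB, where EA and EB are the effects of each agent alone. Combination Emax is the second-highest inhibition within the matrix. Inhibition was scaled from CellTiter-Glo 2.0 luminescence, with 0 set by vehicle wells and 1 by blank wells, after 72 hours of two-drug dosing of cells plated in 1536-well plates.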

For assay [2], the system named is MV-4-11 (Acute Myeloid Leukemia). Described as above. The essentials:
as §1

In assay [3] the test system is SW982 (Other Solid Carcinomas). The assay is described as above. The procedure, abridged:
as §1

The subject of assay [4] is NCI-H1355 (Lung Adenocarcinoma). The description is as above. The essentials:
as §1

The test system of assay [5] is DU-145 (Prostate Carcinoma). Put plainly: Bliss excess, mean over the matrix (fraction); higher = more synergy. The procedure, abridged:
as §1

The test system of assay [6] is NCI-H522 (Lung Adenocarcinoma). The description is as above. The procedure, abridged: as §1
In assay [7] the test system is MOLT-4 (T-Lymphoblastic Leukemia). The assay is described as above. The essentials: as §1
Assay [8] concerns OE33 (Esophageal Adenocarcinoma). Described as above. The essentials:
as §1

Assay [9] has as its system EFO-21 (Ovarian Carcinoma). Described as above. The essentials:
as §1

The test system of assay [10] is MOG-G-UVW (Low Grade Glioma). The assay is described as above. The essentials: as §1
Assay [11] relates to MDA-MB-453 (Breast Carcinoma). The assay is described as above. The procedure, abridged:
as §1

The test system of assay [12] is SK-N-AS (Neuroblastoma). Described as above. The essentials:
as §1

Assay [13] relates to KMRC-1 (Kidney Carcinoma). Described as above. The procedure, abridged:
as §1

Assay [14] relates to NCI-H1993 (Lung Adenocarcinoma). The assay is described as above. The essentials: as §1
Assay [15] concerns KGN (Other Solid Carcinomas). The description is as above. The procedure, abridged:
as §1

The subject of assay [16] is NCI-H1355 (Lung Adenocarcinoma). The description is as above. The procedure, abridged: as §1
The test system of assay [17] is Mo-T (Other Blood Carcinomas). Described as above. The procedure, abridged: as §1
In assay [18] the test system is SKN (Other Solid Carcinomas). Described as above. The procedure, abridged:
as §1

Assay [19] deals with SW872 (Other Solid Carcinomas). The assay is described as above. The procedure, abridged: as §1
The test system of assay [20] is Ca-Ski (Cervical Carcinoma). The description is as above. The essentials:
as §1

In the case of `Cc1cc2ncnn2cc1Nc1ncc2c(n1)n(C1CCOCC1)c(=O)n2C` [AZD7648] + COc1cc([C@@H]2c3cc4c(cc3[C@@H](O[C@@H]3O[C@@H]5CO[C@@H](C)O[C@H]5[C@H](O)[C@H]3O)[C@H]3COC(=O)[C@H]23)OCO4)cc(OC)c1O [Etoposide] (first compound max 10 µM, 7x7, partner max 10 µM), the “combination Emax” value stood at 0.472 in the assay on SK-N-AS (Neuroblastoma) [1], 1 in assay [2], 0.861 in [3] and 0.535 in [4]. The Bliss excess stood at 0.0001 in assay [5]; 0.0178 in assay [6]; 0.167 in [7]; 0.0247 in assay [8]; 0.0562 in assay [9]; 0.164 in [10]. Moreover, the Bliss excess was -0.0136 in assay [11]; 0.0684 with SK-N-AS (Neuroblastoma) [12]; 0.0859 in assay [13]; -0.0083 in assay [14]; 0.114 in assay [15]; 0.0529 in assay [16]. Besides, the Bliss excess in assay [17] was 0.0928; in [18] it was 0.0503; in assay [19], 0.106; in [20], 0.103.

Turning to `Cc1cc2ncnn2cc1Nc1ncc2c(n1)n(C1CCOCC1)c(=O)n2C` [AZD7648] + C[C@@H]1COCCN1C2=NC(=NC(=C2)C3(CC3)[S@](=N)(=O)C)C4=C5C=CNC5=NC=C4 [AZD6738] (first compound max 10 µM, 7x7, partner max 10 µM), the “combination Emax” value in the assay with SK-N-AS (Neuroblastoma) [1] was 0.938; in [2], 0.983; in assay [3] it was 0.73; in [4] it was 0.661. Besides, the Bliss excess in assay [5] is -0.0068; in assay [6], 0.0231; in assay [7] it was 0.0427; in [8] it was -0.0187; in assay [9], 0.053; in assay [10], 0.0717. Besides, the Bliss excess was found to be 0.0076 in assay [11]; 0.0381 with SK-N-AS (Neuroblastoma) [12]; 0.0397 in assay [13]; 0.0469 in [14]; 0.0439 in [15]; 0.0296 in assay [16]. Also, the Bliss excess in assay [17] was -0.0956; in assay [18], 0.0038; in assay [19] it was 0.0801; in assay [20], 0.0404.

In the case of `Cc1cc2ncnn2cc1Nc1ncc2c(n1)n(C1CCOCC1)c(=O)n2C` [AZD7648] + O=C(c1cc(Cc2n[nH]c(=O)c3ccccc23)ccc1F)N1CCN(C(=O)C2CC2)CC1 [Olaparib] (first compound max 10 µM, 7x7, partner max 10 µM), the “combination Emax” value came to 0.102 with SK-N-AS (Neuroblastoma) [1], 0.446 in [2], 0.503 in assay [3] and 0.297 in assay [4]. In addition, the Bliss excess in assay [5] is -0.026; in assay [6] it was -0.0308; in assay [7], -0.0277; in [8], -0.0359; in assay [9], -0.045; in [10], -0.0052. The Bliss excess in [11] was -0.0144; in the assay on SK-N-AS (Neuroblastoma) [12], -0.0337; in [13], -0.015; in assay [14], -0.0321; in [15], -0.0384; in assay [16] it was -0.0538. Besides, the Bliss excess in [17] is -0.049; in [18], -0.0448; in [19] it was -0.0126; in [20], -0.0467.

For `Cc1nc(Nc2ncc(C(=O)Nc3c(C)cccc3Cl)s2)cc(N2CCN(CCO)CC2)n1` [Dasatinib] + CC(=O)Nc1cccc(-n2c(=O)n(C3CC3)c(=O)c3c(Nc4ccc(I)cc4F)n(C)c(=O)c(C)c32)c1 [Trametinib] (first compound max 2 µM, 7x7, partner max 1 µM), the “combination Emax” value came out at 0.558 in the assay with SK-N-AS (Neuroblastoma) [1], 0.791 in assay [2], 0.936 in assay [3] and 0.482 in assay [4]. The Bliss excess was -0.0081 in [5]; -0.0082 in [6]; 0.0717 in [7]; -0.0082 in [8]; 0.0296 in assay [9]; -0.028 in assay [10]. For the same compound, the Bliss excess in assay [11] was -0.035; in the assay with SK-N-AS (Neuroblastoma) [12], 0.0361; in assay [13], -0.0009; in assay [14] it was -0.0254; in assay [15], -0.0643; in assay [16], 0.0328. Besides, the Bliss excess was -0.0835 in assay [17], -0.0618 in assay [18], 0.101 in assay [19] and 0.0639 in [20].

Take `COc1cc2ncnc(Nc3ccc(F)c(Cl)c3)c2cc1OCCCN1CCOCC1` [Gefitinib] + CC(C)n1c(=O)n(C)c2cnc3cc(F)c(-c4ccc(OCCCN5CCCCC5)nc4)cc3c21 [AZD1390] (first compound max 10 µM, 7x7, partner max 0.3 µM): the “combination Emax” value with SK-N-AS (Neuroblastoma) [1] was found to be 0.0247; in assay [2], 0.754; in assay [3] it was 0.316; in [4], 0.133. In addition, the Bliss excess in [5] was -0.06; in [6] it was -0.0551; in assay [7] it was 0.009; in assay [8] it was -0.0434; in assay [9] it was -0.0875; in assay [10] it was -0.0401. For the same compound, the Bliss excess in assay [11] is -0.0171; in the assay on SK-N-AS (Neuroblastoma) [12] it was -0.0588; in assay [13], -0.0702; in assay [14], -0.0506; in assay [15] it was -0.0632; in assay [16], -0.039. For the same compound, the Bliss excess was -0.0475 in [17], -0.0548 in [18], -0.025 in assay [19] and -0.0785 in assay [20].

For `COc1cc2c(cc1OCCCCCOc1cc3c(cc1OC)C(=O)N1C=C(C)C[C@H]1C=N3)N=C[C@@H]1CC(C)=CN1C2=O` [SG3199] + O=C(c1cc(Cc2n[nH]c(=O)c3ccccc23)ccc1F)N1CCN(C(=O)C2CC2)CC1 [Olaparib] (first compound max 0.001 µM, 7x7, partner max 10 µM), the “combination Emax” value in the assay with SK-N-AS (Neuroblastoma) [1] is 0.0679; in assay [2] it was 0.402; in assay [3] it was 0.43; in assay [4], 0.104. Further, the Bliss excess in assay [5] is -0.0361; in assay [6], -0.0245; in assay [7] it was 0.0061; in assay [8] it was -0.0276; in [9] it was -0.0709; in [10] it was -0.0081. In addition, the Bliss excess in [11] is -0.0226; in the assay on SK-N-AS (Neuroblastoma) [12], -0.0176; in assay [13] it was -0.0251; in assay [14], -0.0352; in assay [15] it was -0.04; in assay [16], -0.0503. Also, the Bliss excess was 0.0118 in [17], -0.0373 in assay [18], -0.0209 in [19] and -0.0425 in assay [20].

As for `N#Cc1cnc(Nc2cc(NC[C@H]3CNCCO3)c(C(F)(F)F)cn2)cn1` [SRA737] + CCc1c2c(nc3ccc(O)cc13)-c1cc3c(c(=O)n1C2)COC(=O)[C@]3(O)CC [SN-38] (first compound max 10 µM, 7x7, partner max 0.3 µM), the “combination Emax” value with SK-N-AS (Neuroblastoma) [1] was 0.763; in assay [2], 0.996; in assay [3], 0.829; in assay [4], 0.599. In addition, the Bliss excess in assay [5] was -0.0338; in assay [6], 0.0337; in assay [7], 0.002; in assay [8], -0.0371; in [9] it was -0.0498; in [10] it was 0.0034. For the same compound, the Bliss excess was -0.0401 in [11]; 0.0144 with SK-N-AS (Neuroblastoma) [12]; -0.0193 in [13]; 0.0615 in [14]; -0.0554 in assay [15]; 0.071 in assay [16]. Further, the Bliss excess in assay [17] is -0.0363; in assay [18] it was 0.0673; in assay [19] it was -0.0142; in assay [20], 0.0291.
